Columns and labels:
[1] = biological target: human CYP11B2 (Homo sapiens (Human), UniProt P19099); test: G-402 cellular enzyme assay, human CYP11B2 (aldosterone release, HTRF); format: cell-based; conditions: G-402 cells expressing human CYP11B2; 1 μM Deoxycorticosterone
Description: (§1) Herein we identified the use of the G-402 cell line as a host cell to ectopically express (transiently or stably) enzymes of the CYP11 family. Specifically we developed stable G-402 cells expressing ectopically human CYP11B1, human CYP11B2, human CYP11A1, cynmolgus CYP11B1 or cynomolgus CYP11B2 enzyme activity. Importantly the identified cell line G-402 expresses co-factors (adrenodoxin and adrenodoxin reductase) important for the activity of the CYP11 family and no relevant enzyme activity of the CYP11 family (in comparison to H295R cells) was detected in these cells. Therefore the G-402 cell line is uniquely suited as a host cell for the ectopic expression of enzymes from the CYP11 family.
(§2) G-402 cells can be obtained from ATCC (CRL-1440) and were originally derived from a renal leiomyoblastoma.
(§3) The expression plasmids contains the ORF for either human/cyno CYP11B1 or CYP11B2 under the control of a suitable promoter (CMV-promoter) and a suitable resistance marker (neomycin). Using standard techniques the expression plasmid is transfected into G-402 cells and these cells are then selected for expressing the given resistance markers. Individual cell-clones are then selected and assessed for displaying the desired enzymatic activity using 11-Deoxycorticosterone (Cyp11B2) or 11-Deoxycortisol (Cyp11B1) as a substrate.
(§4) G-402 cells expressing CYP11 constructs were established as described above and maintained in McCoy's 5a Medium Modified, ATCC Catalog No. 30-2007 containing 10% FCS and 400 μg/ml G418 (Geneticin) at 37° C. under an atmosphere of 5% CO2/95% air. Cellular enzyme assays were performed in DMEM/F12 medium containing 2.5% charcoal treated FCS and appropriate concentration of substrate (0.3-10 uM 11-Deoxycorticosterone, 11-Deoxycortisol or Corticosterone). For assaying enzymatic activity, cells were plated onto 96 well plates and incubated for 16 h. An aliquot of the supernatant is then transferred and analyzed for the concentration of the expected product (Aldosterone for CYP11B2; Cortisol for CYP11B1). The concentrations of these steroids can be determined using HTRF assays from CisBio analyzing either Aldosterone or Cortisol.
(§5) Inhibition of the release of produced steroids can be used as a measure of the respective enzyme inhibition by test compounds added during the cellular enzyme assay. The dose dependent inhibition of enzymatic activity by a compound is calculated by means of plotting added inhibitor concentrations (x-axes) vs. measured steroid/product level (y-axes). The inhibition is then calculated by fitting the following 4-parameter sigmoidal function (Morgan-Mercer-Flodin (MMF) model) to the raw data points using the least squares method:
(§6) [formula] wherein, A is the maximum y value, B is the EC50 factor determined using XLFit, C is the minimum y value and D is the slope value.
(§7) EC50 values for compounds claimed herein were tested with the G402-based assay system described. Cyp11B2 enzyme activity was tested in presence of 1 μM Deoxycorticosterone and variable amounts of inhibitors; Cyp11B1 enzyme activity was tested in presence of 1 μM Deoxycortisol and variable amounts of inhibitors.

[2] = biological target: human CYP11B1 (Homo sapiens (Human), UniProt P15538); test: G-402 cellular enzyme assay, human CYP11B1 (cortisol release, HTRF); format: cell-based; conditions: G-402 cells expressing human CYP11B1; 1 μM Deoxycortisol
Description: as §1, §2, §3, §4, §5, §6, §7

human CYP11B1, sequence (P15538 25-503): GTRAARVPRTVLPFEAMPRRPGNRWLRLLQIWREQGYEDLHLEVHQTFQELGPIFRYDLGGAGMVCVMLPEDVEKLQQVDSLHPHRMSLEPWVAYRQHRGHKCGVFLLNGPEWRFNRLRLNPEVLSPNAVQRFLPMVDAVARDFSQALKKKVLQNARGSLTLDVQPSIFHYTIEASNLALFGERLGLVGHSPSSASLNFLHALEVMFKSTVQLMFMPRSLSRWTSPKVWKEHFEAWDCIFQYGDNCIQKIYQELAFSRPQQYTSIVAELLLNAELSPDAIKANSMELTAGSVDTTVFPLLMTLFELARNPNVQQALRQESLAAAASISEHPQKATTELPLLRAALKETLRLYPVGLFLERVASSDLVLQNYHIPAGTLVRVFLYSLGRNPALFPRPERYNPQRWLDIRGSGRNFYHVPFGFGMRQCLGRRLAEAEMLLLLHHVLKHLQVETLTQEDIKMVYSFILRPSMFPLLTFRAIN
human CYP11B2, sequence (P19099 25-503): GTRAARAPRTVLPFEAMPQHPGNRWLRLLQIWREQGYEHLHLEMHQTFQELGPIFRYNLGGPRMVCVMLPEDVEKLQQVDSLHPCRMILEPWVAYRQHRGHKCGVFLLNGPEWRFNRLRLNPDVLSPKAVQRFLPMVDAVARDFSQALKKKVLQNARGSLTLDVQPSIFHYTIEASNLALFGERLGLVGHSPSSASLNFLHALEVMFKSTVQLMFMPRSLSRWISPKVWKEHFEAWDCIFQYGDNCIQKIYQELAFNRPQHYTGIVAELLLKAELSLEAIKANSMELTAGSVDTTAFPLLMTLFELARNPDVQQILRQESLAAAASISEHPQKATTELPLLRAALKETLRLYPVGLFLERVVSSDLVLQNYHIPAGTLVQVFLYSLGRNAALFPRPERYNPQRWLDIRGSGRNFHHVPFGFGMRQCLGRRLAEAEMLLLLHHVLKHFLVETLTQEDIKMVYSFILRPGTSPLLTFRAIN

| SMILES | EC50 [1] [nM] | EC50 [2] [nM] |
| --- | --- | --- |
| N#Cc1ccc(Oc2cn[nH]c2-c2cccc(OCc3ccccc3)c2)cc1 [Example 36, 4-[[5-(3-Phenylmethoxyphenyl)-1H-pyrazol-4-yl]oxy]benzonitrile] | 16.8 | 52.9 |
| N#Cc1ccc(Oc2cn[nH]c2-c2ccccc2Cn2ccc(=O)cc2)cc1 [Example 83, 4-[[3-[2-[(4-Oxopyridin-1-yl)methyl]phenyl]-1H-pyrazol-4-yl]oxy]benzonitrile] | 321 | 2880 |
| N#Cc1ccc(Oc2cn[nH]c2-c2ccccc2OCc2ccccn2)cc1 [Example 79, 4-[[3-[2-(Pyridin-2-ylmethoxy)phenyl]-1H-pyrazol-4-yl]oxy]benzonitrile] | 0.2 | 2.5 |
| Fc1c(Cl)cccc1-c1[nH]ncc1Oc1ccc(Cl)cc1 [Example 31, 5-(3-Chloro-2-fluorophenyl)-4-(4-chlorophenoxy)-1H-pyrazole] | 191 | 1820 |
| CS(=O)(=O)c1ccc(-c2[nH]ncc2Oc2ccc(Cl)cc2)c(Cl)c1 [Example 42, 5-(2-Chloro-4-methylsulfonylphenyl)-4-(4-chlorophenoxy)-1H-pyrazole] | 29.8 | 345 |
| N#Cc1ccc(Oc2cn[nH]c2C2CCCN(C(=O)c3ccccn3)C2)cc1 (racemic) [Example 65, (rac)-4-[[3-[1-(Pyridine-2-carbonyl)piperidin-3-yl]-1H-pyrazol-4-yl]oxy]benzonitrile] | 1410 | 5910 |
| Cn1nncc1COc1c(Cl)cccc1-c1[nH]ncc1Oc1ccc(C#N)cc1 [Example 90, 4-[[3-[3-Chloro-2-[(3-methyltriazol-4-yl)methoxy]phenyl]-1H-pyrazol-4-yl]oxy]benzonitrile] | 159 | 1580 |
| N#Cc1ccc(Oc2cn[nH]c2-c2cccc(COc3cccc(Cl)n3)c2)cc1 [Example 73, 4-[[3-[3-[(6-Chloropyridin-2-yl)oxymethyl]phenyl]-1H-pyrazol-4-yl]oxy]benzonitrile] | 104 | 411 |
| CC(=O)N1CCN(C(=O)c2cccc(-c3[nH]ncc3Oc3ccc(C#N)cc3)c2)CC1 [Example 44, 4-[[3-[3-(4-Acetylpiperazine-1-carbonyl)phenyl]-1H-pyrazol-4-yl]oxy]benzonitrile] | 313 | > 30000 |
| N#Cc1ccc(Oc2cn[nH]c2-c2cccc(O)c2F)cc1 [Example 84, 4-[[3-(2-Fluoro-3-hydroxyphenyl)-1H-pyrazol-4-yl]oxy]benzonitrile] | 0.4 | 17.3 |
| Fc1cc(Cl)ccc1Oc1cn[nH]c1-c1ccccc1Cl [Example 24, 4-(4-Chloro-2-fluorophenoxy)-5-(2-chlorophenyl)-1H-pyrazole] | 10.2 | 350 |
| Cn1nncc1COc1ccccc1-c1[nH]ncc1Oc1ccc(C#N)cc1 [Example 81, 4-[[3-[2-[(3-Methyltriazol-4-yl)methoxy]phenyl]-1H-pyrazol-4-yl]oxy]benzonitrile] | 2.5 | 171 |
| Cc1cccc(Oc2c[nH]nc2-c2ccc(Cl)cc2Cl)n1 [Example 22, 2-[[3-(2,4-Dichlorophenyl)-1H-pyrazol-4-yl]oxy]-6-methylpyridine] | 42.1 | 611 |
| Cn1cc(COc2ccccc2-c2[nH]ncc2Oc2ccc(C#N)cc2)cn1 [Example 80, 4-[[3-[2-[(1-Methylpyrazol-4-yl)methoxy]phenyl]-1H-pyrazol-4-yl]oxy]benzonitrile] | 0.3 | 6.9 |
| CCOC(=O)c1ccccc1-c1[nH]ncc1Oc1ccc(C#N)cc1 [Example 39, Ethyl 2-[4-(4-cyanophenoxy)-1H-pyrazol-3-yl]benzoate] | 34.2 | 1160 |
| FC(F)Oc1ccccc1-c1[nH]ncc1Oc1ccc(Cl)cc1 [Example 8, 4-(4-Chlorophenoxy)-5-[2-(difluoromethoxy)phenyl]-1H-pyrazole] | 4 | 75.7 |

| SMILES | EC50 [1] [nM] | EC50 [2] [nM] |
| --- | --- | --- |
| N#Cc1ccc(Oc2cn[nH]c2-c2cccc(Cl)c2)cc1 [Example 32, 4-[[5-(3-Chlorophenyl)-1H-pyrazol-4-yl]oxy]benzonitrile] | 45.8 | 542 |
| FC(F)(F)c1ccc(Oc2cn[nH]c2-c2ccccc2Cl)cc1 [Example 23, 5-(2-Chlorophenyl)-4-[4-(trifluoromethyl)phenoxy]-1H-pyrazole] | 26.8 | 723 |
| COc1ccc(Cl)cc1-c1[nH]ncc1Oc1ccc(Cl)cc1 [Example 10, 3-(5-Chloro-2-methoxyphenyl)-4-(4-chlorophenoxy)-1H-pyrazole] | 60.8 | 835 |
| Cn1cc(-c2[nH]ncc2Oc2ccc(C#N)cc2)cn1 [Example 67, 4-[[3-(1-Methylpyrazol-4-yl)-1H-pyrazol-4-yl]oxy]benzonitrile] | 251 | 3270 |
| Cc1ccc(Oc2cn[nH]c2-c2ccccc2Cl)cn1 [Example 20, 5-[[5-(2-Chlorophenyl)-1H-pyrazol-4-yl]oxy]-2-methylpyridine] | 311 | 3390 |
| N#Cc1ccc(Oc2cn[nH]c2-c2cccc(F)c2Cl)cc1 [Example 35, 4-[[5-(2-Chloro-3-fluorophenyl)-1H-pyrazol-4-yl]oxy]benzonitrile] | 1.5 | 68.6 |
| CS(=O)(=O)c1ccc(-c2[nH]ncc2Oc2ccc(C#N)cc2)cc1 [Example 18, 4-[[5-(4-Methylsulfonylphenyl)-1H-pyrazol-4-yl]oxy]benzonitrile] | 23.9 | 462 |
| CS(=O)(=O)c1ccc(-c2[nH]ncc2Oc2ccc(C#N)cc2)c(Cl)c1 [Example 43, 4-[[5-(2-Chloro-4-methylsulfonylphenyl)-1H-pyrazol-4-yl]oxy]benzonitrile] | 41.6 | 558 |
| COC(=O)c1cccc(-c2[nH]ncc2Oc2ccc(C#N)cc2)c1 [Example 33, Methyl 3-[4-(4-cyanophenoxy)-1H-pyrazol-3-yl]benzoate] | 17.5 | 31.3 |
| Clc1ccc(Oc2cn[nH]c2-c2ccccc2Cl)cn1 [Example 19, 2-Chloro-5-[[5-(2-chlorophenyl)-1H-pyrazol-4-yl]oxy]pyridine] | 113 | 387 |
| Cc1cc(COc2cccc(-c3[nH]ncc3Oc3ccc(C#N)cc3)c2)on1 [Example 52, 4-[[3-[3-[(3-Methyl-1,2-oxazol-5-yl)methoxy]phenyl]-1H-pyrazol-4-yl]oxy]benzonitrile] | 14.8 | 32.3 |
| N#Cc1ccc(Oc2cn[nH]c2-c2cccc(OCc3ccncc3)c2F)cc1 [Example 85, 4-[[3-[2-Fluoro-3-(pyridin-4-ylmethoxy)phenyl]-1H-pyrazol-4-yl]oxy]benzonitrile] | 0.3 | 5.2 |
| CS(=O)(=O)c1ccc(-c2[nH]ncc2Oc2ccc(Cl)cc2)cc1 [Example 12, 4-(4-Chlorophenoxy)-5-(4-methylsulfonylphenyl)-1H-pyrazole] | 26.4 | 600 |
| N#Cc1ccc(Oc2cn[nH]c2-c2ccnc(Cl)c2)cc1 [Example 37, 4-[[5-(2-Chloropyridin-4-yl)-1H-pyrazol-4-yl]oxy]benzonitrile] | 317 | 10500 |
| Cc1ncc(-c2[nH]ncc2Oc2ccc(C#N)cc2)s1 [Example 66, 4-[[3-(2-Methyl-1,3-thiazol-5-yl)-1H-pyrazol-4-yl]oxy]benzonitrile] | 68.5 | 2060 |
